Assay [1] in a line: Cytotoxicity against S-180cisR cells by MTT assay. The assay is classed as functional, cell-based, Mus musculus. A general note: Tetrazolium assays rely on reduction of a dye to a coloured formazan, in cell work by metabolically active cells.
The nature of assay [2]: Cytotoxicity against S-180 cells by MTT assay. In kind it is functional, cell-based, Mus musculus.

By IC50 is commonly meant the concentration at which inhibition is half-maximal. Lower therefore signals higher potency. Turning to CISPLATIN, the figures for the IC50 in assay [1] and in assay [2] were 59 µM and 2.4 µM, respectively.

For cis-[PtCl2(NH3)(2-C6H5CH2C5H4N)], the concentration for half-maximal inhibition (IC50) in assay [1] stood at 49 µM.

With cis-[PtCl2(NH3)(2-CH3C5H4N)], the 50% inhibitory concentration (IC50) in assay [1] was 49 µM.

In turn, cis-[PtCl2(NH3)(3-CH3C5H4N)] showed a half-inhibitory concentration (IC50) in assay [1] of 49 µM.

As to cis-[PtCl2(NH3)(3-CH3CH2C5H4N)], inhibition in assay [1] was half-maximal at 49 µM (IC50).

On to cis-[PtCl(2-C6H4C5H4)(2-C6H5C5H4N)], for which the concentration for half-maximal inhibition (IC50) in assay [1] came to 8.6 µM; in assay [2], 3.1 µM.

These data come from ChEMBL document CHEMBL1134842, “Mononuclear platinum(II) complex with 2-phenylpyridine ligands showing high cytotoxicity against mouse sarcoma 180 cells acquiring high cisplatin resistance” (J Med Chem, 2001).
